Assay results from paper PMC11864979, “First-in-class ultralong-target-residence-time p38α inhibitors as a mitosis-targeted therapy for colorectal cancer” (Nature Cancer, 2025).
Where two headings read alike, the source gives them in different places.

Key:
Assay in all cases: selectivity profiling in a panel of 340 wild-type kinases (Reaction Biology Europe)
Assay type in all cases: binding
340 wild-type kinases [1] = biological target: T1, 340 wild-type kinases (Homo sapiens, UniProt Q04771)
T1 construct: purchased Reaction Biology Europe
T1 sequence (Q04771 21-509): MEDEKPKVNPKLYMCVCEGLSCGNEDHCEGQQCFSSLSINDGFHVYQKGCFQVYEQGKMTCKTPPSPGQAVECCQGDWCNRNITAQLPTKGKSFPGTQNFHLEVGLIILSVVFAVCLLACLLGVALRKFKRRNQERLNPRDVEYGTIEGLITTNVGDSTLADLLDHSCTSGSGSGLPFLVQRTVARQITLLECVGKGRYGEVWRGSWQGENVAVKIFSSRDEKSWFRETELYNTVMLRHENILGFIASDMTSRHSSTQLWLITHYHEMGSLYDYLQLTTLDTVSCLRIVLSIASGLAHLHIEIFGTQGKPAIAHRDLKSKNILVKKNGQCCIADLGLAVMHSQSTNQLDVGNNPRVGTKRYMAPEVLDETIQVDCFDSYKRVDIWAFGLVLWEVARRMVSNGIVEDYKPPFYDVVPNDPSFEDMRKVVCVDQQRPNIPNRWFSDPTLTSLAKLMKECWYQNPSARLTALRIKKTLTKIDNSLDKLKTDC

340 wild-type kinases [2] = biological target: T2, 340 wild-type kinases (Homo sapiens, UniProt Q9H1R3)
T2 construct: purchased Reaction Biology Europe

340 wild-type kinases [3] = biological target: T3, 340 wild-type kinases (Homo sapiens, UniProt P50613)
T3 construct: purchased Reaction Biology Europe

340 wild-type kinases [4] = biological target: T4, 340 wild-type kinases (Homo sapiens, UniProt Q9P289)
T4 construct: purchased Reaction Biology Europe

340 wild-type kinases [5] = biological target: T5, 340 wild-type kinases (Homo sapiens, UniProt O60285)
T5 construct: purchased Reaction Biology Europe
T5 sequence (O60285 1-661): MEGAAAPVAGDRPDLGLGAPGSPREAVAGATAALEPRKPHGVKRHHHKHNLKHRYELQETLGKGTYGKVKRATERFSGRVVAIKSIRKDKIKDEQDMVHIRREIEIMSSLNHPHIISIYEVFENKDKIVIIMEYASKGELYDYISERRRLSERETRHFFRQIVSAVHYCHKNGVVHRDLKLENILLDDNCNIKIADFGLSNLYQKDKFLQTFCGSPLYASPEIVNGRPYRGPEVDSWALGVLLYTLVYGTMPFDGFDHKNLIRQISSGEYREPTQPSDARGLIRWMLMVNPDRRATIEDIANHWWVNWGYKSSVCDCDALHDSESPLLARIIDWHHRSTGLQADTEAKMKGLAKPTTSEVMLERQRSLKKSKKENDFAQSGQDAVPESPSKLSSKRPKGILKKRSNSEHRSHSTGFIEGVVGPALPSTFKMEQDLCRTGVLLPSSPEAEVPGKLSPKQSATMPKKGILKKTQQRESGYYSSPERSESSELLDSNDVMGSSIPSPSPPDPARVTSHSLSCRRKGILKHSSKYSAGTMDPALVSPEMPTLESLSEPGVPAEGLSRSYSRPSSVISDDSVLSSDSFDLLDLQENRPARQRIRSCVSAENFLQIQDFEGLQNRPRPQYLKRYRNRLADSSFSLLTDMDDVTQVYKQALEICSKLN

340 wild-type kinases [6] = biological target: T6, 340 wild-type kinases (Homo sapiens, UniProt P29322)
T6 construct: purchased Reaction Biology Europe
T6 sequence (P29322 28-1005): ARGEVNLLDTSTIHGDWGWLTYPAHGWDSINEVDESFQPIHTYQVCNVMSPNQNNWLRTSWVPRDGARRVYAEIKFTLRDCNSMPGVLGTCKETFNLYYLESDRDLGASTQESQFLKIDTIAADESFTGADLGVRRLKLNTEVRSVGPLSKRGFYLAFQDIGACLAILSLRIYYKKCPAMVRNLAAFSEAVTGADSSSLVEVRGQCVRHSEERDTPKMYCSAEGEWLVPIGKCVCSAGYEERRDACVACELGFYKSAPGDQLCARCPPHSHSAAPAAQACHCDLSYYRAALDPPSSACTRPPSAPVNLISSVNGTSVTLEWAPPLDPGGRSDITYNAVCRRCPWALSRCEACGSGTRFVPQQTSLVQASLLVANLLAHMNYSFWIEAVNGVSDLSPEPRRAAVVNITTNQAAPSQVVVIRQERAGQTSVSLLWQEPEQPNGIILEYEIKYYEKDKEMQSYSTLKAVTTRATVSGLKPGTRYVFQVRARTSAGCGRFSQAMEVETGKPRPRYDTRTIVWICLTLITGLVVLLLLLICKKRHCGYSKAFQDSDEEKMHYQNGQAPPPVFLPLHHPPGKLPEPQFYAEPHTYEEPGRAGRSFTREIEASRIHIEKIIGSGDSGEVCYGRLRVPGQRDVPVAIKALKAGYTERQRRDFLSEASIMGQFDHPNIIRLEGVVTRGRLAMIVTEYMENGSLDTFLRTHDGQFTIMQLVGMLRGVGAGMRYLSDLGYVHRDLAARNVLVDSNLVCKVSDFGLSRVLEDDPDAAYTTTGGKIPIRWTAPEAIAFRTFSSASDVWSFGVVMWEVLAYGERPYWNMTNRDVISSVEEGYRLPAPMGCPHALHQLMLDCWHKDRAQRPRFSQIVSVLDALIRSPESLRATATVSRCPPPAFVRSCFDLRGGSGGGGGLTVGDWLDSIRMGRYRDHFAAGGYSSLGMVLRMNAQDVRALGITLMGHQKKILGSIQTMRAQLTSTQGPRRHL

340 wild-type kinases [7] = biological target: T7, 340 wild-type kinases (Homo sapiens, UniProt P49841)
T7 construct: purchased Reaction Biology Europe
T7 sequence (P49841 whole entry): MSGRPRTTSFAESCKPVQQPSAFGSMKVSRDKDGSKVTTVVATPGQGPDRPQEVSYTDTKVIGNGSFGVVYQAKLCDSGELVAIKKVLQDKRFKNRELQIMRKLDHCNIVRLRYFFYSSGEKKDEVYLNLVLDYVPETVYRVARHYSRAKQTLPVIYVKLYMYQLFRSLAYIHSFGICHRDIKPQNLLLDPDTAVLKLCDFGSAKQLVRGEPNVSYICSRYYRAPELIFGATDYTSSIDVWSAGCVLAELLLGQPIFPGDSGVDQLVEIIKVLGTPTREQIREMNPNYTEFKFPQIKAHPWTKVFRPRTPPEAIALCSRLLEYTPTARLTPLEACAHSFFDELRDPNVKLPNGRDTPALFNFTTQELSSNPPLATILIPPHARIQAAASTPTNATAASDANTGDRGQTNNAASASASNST

T4 sequence (Q9P289 whole entry): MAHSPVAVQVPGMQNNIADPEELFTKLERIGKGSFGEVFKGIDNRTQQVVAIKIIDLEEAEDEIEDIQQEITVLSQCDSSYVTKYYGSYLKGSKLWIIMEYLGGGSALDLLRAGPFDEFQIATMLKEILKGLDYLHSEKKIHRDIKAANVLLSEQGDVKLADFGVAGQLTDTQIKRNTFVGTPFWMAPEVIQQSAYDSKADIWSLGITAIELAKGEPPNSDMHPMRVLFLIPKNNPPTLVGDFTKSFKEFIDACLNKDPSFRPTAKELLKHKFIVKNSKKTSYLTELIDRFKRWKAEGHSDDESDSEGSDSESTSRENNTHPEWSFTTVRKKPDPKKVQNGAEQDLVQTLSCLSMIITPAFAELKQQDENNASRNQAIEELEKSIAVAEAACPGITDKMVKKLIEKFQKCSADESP
T3 sequence (P50613 whole entry): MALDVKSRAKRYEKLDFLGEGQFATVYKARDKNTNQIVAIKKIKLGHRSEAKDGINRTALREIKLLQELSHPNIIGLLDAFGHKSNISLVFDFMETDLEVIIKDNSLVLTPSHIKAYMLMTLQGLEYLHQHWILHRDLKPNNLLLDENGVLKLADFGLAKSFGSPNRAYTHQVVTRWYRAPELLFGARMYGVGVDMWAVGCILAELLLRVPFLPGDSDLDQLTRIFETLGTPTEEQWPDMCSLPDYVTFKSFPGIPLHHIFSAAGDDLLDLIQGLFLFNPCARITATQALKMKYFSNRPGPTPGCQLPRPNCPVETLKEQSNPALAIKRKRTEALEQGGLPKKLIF
T2 sequence (Q9H1R3 whole entry): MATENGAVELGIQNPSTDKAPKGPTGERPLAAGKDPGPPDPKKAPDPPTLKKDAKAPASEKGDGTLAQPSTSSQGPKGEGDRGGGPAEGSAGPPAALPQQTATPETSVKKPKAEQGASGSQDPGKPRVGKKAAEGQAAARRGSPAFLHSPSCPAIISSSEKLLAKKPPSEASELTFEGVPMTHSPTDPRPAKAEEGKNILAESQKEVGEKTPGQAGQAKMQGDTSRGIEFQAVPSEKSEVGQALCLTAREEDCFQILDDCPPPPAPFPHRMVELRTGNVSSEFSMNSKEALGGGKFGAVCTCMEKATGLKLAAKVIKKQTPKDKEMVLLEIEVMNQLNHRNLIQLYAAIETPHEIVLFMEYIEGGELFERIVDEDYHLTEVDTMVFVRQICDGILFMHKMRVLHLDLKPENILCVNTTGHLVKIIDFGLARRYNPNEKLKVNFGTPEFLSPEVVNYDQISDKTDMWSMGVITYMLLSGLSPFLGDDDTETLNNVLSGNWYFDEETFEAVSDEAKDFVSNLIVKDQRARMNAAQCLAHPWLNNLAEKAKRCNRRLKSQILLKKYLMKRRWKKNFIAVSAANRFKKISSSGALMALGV

With CNC(=O)c1ccc2c(c1)C(=O)c1ccc(Nc3ccc(F)c(NC(=O)C4CC4)c3)cc1CC2 [Compound 2015] the remaining activity at 0.2 µM (340 wild-type kinases [1]; 0.2 µM 2015, read-out: ACVR1 residual activity) was 88.7%, the remaining activity at 1 µM (340 wild-type kinases [1]; 1 µM 2015, read-out: ACVR1 residual activity) was 96.8% and the remaining activity at 0.2 µM (340 wild-type kinases [1]; ACVR1, 0.2 µM, read-out: residual activity) was 88.7%. The remaining activity at 1 µM (340 wild-type kinases [1]; ACVR1, 1 µM, read-out: residual activity) was 96.8%, the remaining activity at 0.2 µM (340 wild-type kinases [2]; 0.2 µM 2015, read-out: MYLK2 residual activity) was 89.3% and the remaining activity at 1 µM (340 wild-type kinases [2]; 1 µM 2015, read-out: MYLK2 residual activity) was 77.6%. It also gave a remaining activity at 0.2 µM (340 wild-type kinases [2]; MYLK2, 0.2 µM, read-out: residual activity) of 89.3%, a remaining activity at 1 µM (340 wild-type kinases [2]; MYLK2, 1 µM, read-out: residual activity) of 77.6% and a remaining activity at 0.2 µM (340 wild-type kinases [3]; 0.2 µM 2015, read-out: CDK7/CycH/MAT1 residual activity) of 94%. It also gave a remaining activity at 1 µM (340 wild-type kinases [3]; 1 µM 2015, read-out: CDK7/CycH/MAT1 residual activity) of 91.1%, a remaining activity at 0.2 µM (340 wild-type kinases [3]; CDK7/CycH/MAT1, 0.2 µM, read-out: residual activity) of 94% and a remaining activity at 1 µM (340 wild-type kinases [3]; CDK7/CycH/MAT1, 1 µM, read-out: residual activity) of 91.2%. For the same compound, the remaining activity at 0.2 µM (340 wild-type kinases [4]; 0.2 µM 2015, read-out: MST4 residual activity) was 78.4%, the remaining activity at 1 µM (340 wild-type kinases [4]; 1 µM 2015, read-out: MST4 residual activity) was 69.9% and the remaining activity at 0.2 µM (340 wild-type kinases [4]; MST4, 0.2 µM, read-out: residual activity) was 78.3%. It also gave a remaining activity at 1 µM (340 wild-type kinases [4]; MST4, 1 µM, read-out: residual activity) of 69.9%, a remaining activity at 0.2 µM (340 wild-type kinases [5]; 0.2 µM 2015, read-out: ARK5 residual activity) of 96.7% and a remaining activity at 1 µM (340 wild-type kinases [5]; 1 µM 2015, read-out: ARK5 residual activity) of 98.5%. The remaining activity at 0.2 µM (340 wild-type kinases [5]; ARK5, 0.2 µM, read-out: residual activity) was 96.7%, the remaining activity at 1 µM (340 wild-type kinases [5]; ARK5, 1 µM, read-out: residual activity) was 98.5% and the remaining activity at 0.2 µM (340 wild-type kinases [6]; 0.2 µM 2015, read-out: EPHA8 residual activity) was 98.5%. For the same compound, the remaining activity at 1 µM (340 wild-type kinases [6]; 1 µM 2015, read-out: EPHA8 residual activity) was 95.3%, the remaining activity at 0.2 µM (340 wild-type kinases [6]; EPHA8, 0.2 µM, read-out: residual activity) was 98.5% and the remaining activity at 1 µM (340 wild-type kinases [6]; EPHA8, 1 µM, read-out: residual activity) was 95.3%. For the same compound, the remaining activity at 0.2 µM (340 wild-type kinases [7]; 0.2 µM 2015, read-out: GSK3beta residual activity) was 98.7%, the remaining activity at 1 µM (340 wild-type kinases [7]; 1 µM 2015, read-out: GSK3beta residual activity) was 86.4% and the remaining activity at 0.2 µM (340 wild-type kinases [7]; GSK3beta, 0.2 µM, read-out: residual activity) was 98.7%. For the same compound, the remaining activity at 1 µM (340 wild-type kinases [7]; GSK3beta, 1 µM, read-out: residual activity) was 86.3%.
